Measured values: US8759535B2, “Substituted fused imidazole derivatives, pharmaceutical compositions, and methods of use thereof” (High Point Pharmaceuticals, LLC, priority 2010, dated 2014)
Counter-ions that a name gives are not always drawn.

System: HMOX1
Assay: HMOX1 Protein Assay (immunostaining of HO-1 in NHLF cells, GE InCell 1000)
Assay type: cell-based
Conditions: Homo sapiens, fold change above DMSO treated cells, 16 h; for fold induction at 3 µM: 3 μM compound (asterisk); for fold induction at 5 µM: 5 μM compound
Method: Cell Culture. Normal Human Fibroblast (NHLF), were obtained from Lonza. Cultures of cells were maintained in Fibroblast Growth Medium (FGM-2) medium supplemented with 2% fetal bovine serum (FBS), Fibroblast Growth Factor (hFGF-B) 0.5 mL, Insulin 0.5 mL, gentamicin/amphotericin-B 0.5 mL at 37° C. in a humidified atmosphere of 5% CO2. Cells were grown to 80% confluence before treating.
HMOX1 Protein Assay. NHLF cells were grown to 80% confluency and harvested by washing once with HEPES and then trypsinized. Equal numbers (2×10^3 cells per well) of NHLF cells were plated in 384 well optilux tissue culture (BD) plates. Cells were incubated overnight in FGM-2 medium prior to exposure to compound. Cells were treated with either vehicle (DMSO) or compound (dissolved in vehicle) for 16 h. Cells were washed 2× with 1×PBS and fixed with 4% Paraformaldyhyde for 15 min. The fixed cells were then permeabalized with 0.1% Triton X-100 and blocked with 5% BSA in 1×PBS 0.05% Tween-20 for 15 min. HO-1 antibody (abcam) was used for immunostaining at 1:300 dilution in 1% BSA in 1×PBS for 1 hour. Cells were washed 2× with 1×PBS and secondary antibody goat anti-mouse Alexa 488 1:400 dilution (Invitrogen); Hoechst 1:2000 (Invitrogen) in 1% BSA in 1×PBS for 1 hour. Plate was washed 5× with 1×PBS and read at Hoechst Ex.360 […]; Alexa 488 Ex.480 Em. 535 using GE InCell 1000. Results analyzed using GE InCell Analyzer software. Heme oxygenase data represents the fold change above DMSO treated cells.
In general, the fold induction data are reported for 5 μM concentration (i.e., μ-moles of compound to total volume, where the solvent is about 99.2% media and 0.8% DMSO). In some instances, the reported data are for 3 μM concentration, which are indicated by an asterisk (*).

`CN1CCN(C(=O)CCNC(=O)c2ccc3c(c2)nc(Nc2nc4ccc(C(F)(F)F)cc4s2)n3C)CC1` [Example 375, 1-Methyl-2-(6-trifluoromethyl-benzothiazol-2-ylamino)-1H-benzoimidazole-5-carboxylic acid [3-(4-methyl-piperazin-1-yl)-3-oxo-propyl]-amide] was tested, and the fold induction at 3 µM was 19.4.
With `Cn1c(Nc2nc3ccc(OC(F)(F)F)cc3s2)nc2cc(C(=O)NCCN3CCOCC3)cnc21` [Example 77, 3-Methyl-2-(6-trifluoromethoxy-benzothiazol-2-ylamino)-3H-imidazo[4,5-b]pyridine-6-carboxylic acid (2-morpholin-4-yl-ethyl)-amide] the fold induction at 5 µM was 31.4.
`CSCCNC(=O)c1ccc2c(c1)nc(Nc1nc3ccc(OC(F)(F)F)cc3s1)n2C` [Example 101, 1-Methyl-2-(6-trifluoromethoxy-benzothiazol-2-ylamino)-1H-benzoimidazole-5-carboxylic acid (2-methylsulfanyl-ethyl)-amide] showed a fold induction at 5 µM of 11.2.
`C[C@H](NC(=O)c1ccc2c(c1)nc(Nc1nc3ccc(C(F)(F)F)cc3s1)n2C)C(=O)N1CCOCC1` [Example 466, 1-Methyl-2-(6-trifluoromethyl-benzothiazol-2-ylamino)-1H-benzoimidazole-5-carboxylic acid ((S)-1-methyl-2-morpholin-4-yl-2-oxo-ethyl)-amide] showed a fold induction at 3 µM of 22.4.
`CO[C@H]1CCCN(C(=O)CNC(=O)c2ccc3c(c2)nc(Nc2nc4ccc(C(F)(F)F)cc4s2)n3C)C1` [Example 445, 1-Methyl-2-(6-trifluoromethyl-benzothiazol-2-ylamino)-1H-benzoimidazole-5-carboxylic acid [2-((S)-3-methoxy-piperidin-1-yl)-2-oxo-ethyl]-amide] showed a fold induction at 3 µM of 36.4.
`CNC(=O)CNC(=O)c1ccc2c(c1)nc(Nc1nc3ccc(Cl)cc3s1)n2C` [Example 380, 2-(6-Chloro-benzothiazol-2-ylamino)-1-methyl-1H-benzoimidazole-5-carboxylic acid methylcarbamoylmethyl-amide] was tested, and the fold induction at 3 µM was 30.
With `CCn1c(Nc2nc3ccc(OC(F)(F)F)cc3s2)nc2cc(C(=O)NC)ccc21` [Example 155, 1-Ethyl-2-(6-trifluoromethoxy-benzothiazol-2-ylamino)-1H-benzoimidazole-5-carboxylic acid methylamide] the fold induction at 5 µM was 24.3.
`CCN(CC)c1cc2c(cc1C(=O)O)nc(Nc1nc3ccc(OC(F)(F)F)cc3s1)n2C` [Example 70, 6-Diethylamino-1-methyl-2-(6-trifluoromethoxy-benzothiazol-2-ylamino)-1H-benzoimidazole-5-carboxylic acid] showed a fold induction at 5 µM of 21.4.
Work on `Cn1c(Nc2nc3ccc(OC(F)(F)F)cc3s2)nc2cc(C(=O)NCCN3CCOCC3)c(F)cc21` [Example 59, 6-Fluoro-1-methyl-2-(6-trifluoromethoxy-benzothiazol-2-ylamino)-1H-benzoimidazole-5-carboxylic acid (2-morpholin-4-yl-ethyl)-amide] yielded a fold induction at 5 µM of 49.8.
`CSCCCNC(=O)c1ccc2c(c1)nc(Nc1nc3ccc(OC(F)(F)F)cc3s1)n2C` [Example 108, 1-Methyl-2-(6-trifluoromethoxy-benzothiazol-2-ylamino)-1H-benzoimidazole-5-carboxylic acid (3-methylsulfanyl-propyl)-amide] showed a fold induction at 5 µM of 18.3.
`CN(C)CC(=O)NCCNC(=O)c1ccc2c(c1)nc(Nc1nc3ccc(Cl)cc3s1)n2C` [Example 324, 2-(6-Chloro-benzothiazol-2-ylamino)-1-methyl-1H-benzoimidazole-5-carboxylic acid [2-(2-dimethylamino-acetylamino)-ethyl]-amide] showed a fold induction at 5 µM of 27.9.
`Cn1c(Nc2nc3ccc(OC(F)(F)F)cc3s2)nc2cc(C(=O)NCCc3cccc(O)c3)ccc21` [Example 252, 1-Methyl-2-(6-trifluoromethoxy-benzothiazol-2-ylamino)-1H-benzoimidazole-5-carboxylic acid [2-(3-hydroxy-phenyl)-ethyl]-amide] gave a fold induction at 5 µM of 13.1.
`Cn1c(Nc2nc3ccc(OC(F)(F)F)cc3s2)nc2cc(C(=O)NC3CCCN(C(=O)OC(C)(C)C)C3)ccc21` (stereo not drawn) [Example 94, 3-{[1-Methyl-2-(6-trifluoromethoxy-benzothiazol-2-ylamino)-1H-benzoimidazole-5-carbonyl]-amino}-piperidine-1-carboxylic acid tert-butyl ester] was tested, and the fold induction at 5 µM was 1.2.
In the case of `CCNC(=O)c1ccc2c(c1)nc(Nc1nc3ccc(OC(F)(F)F)cc3s1)n2C` [Example 6, 1-Methyl-2-(6-trifluoromethoxy-benzothiazol-2-ylamino)-1H-benzoimidazole-5-carboxylic acid ethylamide], the fold induction at 5 µM is reported as 9.45.
`Cn1c(Nc2nc3ccc(Cl)cc3s2)nc2cc(C(=O)NCC(=O)N3CCC(CO)CC3)ccc21` [Example 442, 2-(6-Chloro-benzothiazol-2-ylamino)-1-methyl-1H-benzoimidazole-5-carboxylic acid [2-(4-hydroxymethyl-piperidin-1-yl)-2-oxo-ethyl]-amide] gave a fold induction at 5 µM of 34.9.
For `CN(C)C(=O)CNC(=O)c1cc2nc(Nc3nc4ccc(OC(F)(F)F)cc4s3)n(C)c2cc1F` [Example 58, 6-Fluoro-1-methyl-2-(6-trifluoromethoxy-benzothiazol-2-ylamino)-1H-benzoimidazole-5-carboxylic acid dimethylcarbamoylmethyl-amide], the fold induction at 5 µM was 32.8.
Work on `CNCC1CCCN(C(=O)CNC(=O)c2ccc3c(c2)nc(Nc2nc4ccc(Cl)cc4s2)n3C)C1` (stereo not drawn) [Example 460, 2-(6-Chloro-benzothiazol-2-ylamino)-1-methyl-1H-benzoimidazole-5-carboxylic acid [2-(3-methylaminomethyl-piperidin-1-yl)-2-oxo-ethyl]-amid hydrochloride] yielded a fold induction at 5 µM of 27.5.
Compound `C[C@@H](NC(=O)c1ccc2c(c1)nc(Nc1nc3ccc(C(F)(F)F)cc3s1)n2C)C(=O)N(C)C` [Example 468, 1-Methyl-2-(6-trifluoromethyl-benzothiazol-2-ylamino)-1H-benzoimidazole-5-carboxylic acid ((R)-1-dimethylcarbamoyl-ethyl)-amide] has a fold induction at 3 µM of 26.3.
`Cn1c(Nc2nc3ccc(OC(F)(F)F)cc3s2)nc2cc(C(=O)NCCOCC(F)F)ccc21` [Example 258, 1-Methyl-2-(6-trifluoromethoxy-benzothiazol-2-ylamino)-1H-benzoimidazole-5-carboxylic acid [2-(2,2-difluoro-ethoxy)-ethyl]-amide] was tested, and the fold induction at 5 µM was 24.6.
`Cn1c(Nc2nc3ccc(OC(F)(F)F)cc3s2)nc2ccc(-c3nc[nH]n3)cc21` [Example 197, [1-Methyl-6-(1H-1,2,4-triazol-3-yl)-1H-benzimidazol-2-yl]-(6-trifluoromethoxy-benzothiazol-2-yl)-amine] was tested, and the fold induction at 5 µM was 18.
For `Cn1c(Nc2nc3ccc(OC(F)(F)F)cc3s2)nc2cc(C(=O)NCC3CC3)ccc21` [Example 5, 1-Methyl-2-(6-trifluoromethoxy-benzothiazol-2-ylamino)-1H-benzoimidazole-5-carboxylic acid cyclopropylmethyl-amide], the fold induction at 5 µM was 8.33.
Work on `CN1CC[C@H](NC(=O)c2ccc3c(c2)nc(Nc2nc4ccc(Cl)cc4s2)n3C)C1` [Example 317, 2-(6-Chloro-benzothiazol-2-ylamino)-1-methyl-1H-benzoimidazole-5-carboxylic acid ((S)-1-methyl-pyrrolidin-3-yl)amide] yielded a fold induction at 5 µM of 16.3.
With `CNCCn1c(Nc2nc3ccc(OC(F)(F)F)cc3s2)nc2cc(C(=O)NCCOCCO)ccc21` [Example 239, 1-(2-Methylamino-ethyl)-2-(6-trifluoromethoxy-benzothiazol-2 ylamino)-1H-benzoimidazole-5-carboxylic acid[2-(2-hydroxy-ethoxy)-ethyl]-amide hydrochloride] the fold induction at 3 µM was 10.
With `COC(=O)[C@H](C)NC(=O)c1ccc2c(c1)nc(Nc1nc3ccc(OC(F)(F)F)cc3s1)n2C` [Example 143, (S)-2-{[1-Methyl-2-(6-trifluoromethoxy-benzothiazol-2-ylamino)-1H-benzoimidazole-5-carbonyl]-amino}-propionic acid methyl ester] the fold induction at 5 µM was 22.4.
`CN(C)C(=O)CNC(=O)c1ccc2c(c1)nc(Nc1nc3ccc(Cl)cc3s1)n2C` [Example 133, 2-(6-Chloro-benzothiazol-2-ylamino)-1-methyl-1H-benzimidazole-5-carboxylic acid dimethylcarbamoylmethyl-amide] showed a fold induction at 5 µM of 45.9.
`Cn1c(Nc2nc3ccc(Cl)cc3s2)nc2cc(C(=O)NCCN)ccc21` [Example 343, 2-(6-Chloro-benzothiazol-2-ylamino)-1-methyl-1H-benzoimidazole-5-carboxylic acid (2-amino-ethyl)-amide hydrochloride] was tested, and the fold induction at 5 µM was 21.1.
`COC(=O)CNC(=O)c1ccc2c(c1)nc(Nc1nc3ccc(OC(F)(F)F)cc3s1)n2C` [Example 79, {[1-Methyl-2-(6-trifluoromethoxy-benzothiazol-2-ylamino)-1H-benzoimidazole-5-carbonyl]-amino}-acetic acid methyl ester] was tested, and the fold induction at 5 µM was 17.6.
